This is an account of results in US20230117034A1, “PYRAZOLOTRIAZINES” (Bayer Aktiengesellschaft, priority 2019, published 2023).

The target of the test is T1, CDK9/CycT1 (Homo sapiens, UniProt P50750).
T1 construct: Recombinant full-length His-tagged human CDK9 and CycT1; purchased Life Technologies PV4131; host or cells: insect cells
Nature of the test: CDK9/CycT1 high ATP kinase assay (TR-FRET, 2 mM ATP). It counts as biochemical. The following applies: 2 mM ATP (high ATP); median; read-out: CDK9/CyclinT1, 2 mM ATP (high ATP), IC50 (median). A digest of the protocol:
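Full-length His-tagged human CDK9/CycT1 (insect cell, ~0.5 μg/mL) preincubated 15 min at 22 °C with compound in Tris pH 8.0, MgCl2, DTT buffer before reaction with biotinylated peptide substrate at high ATP (2 mM).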

T1 sequence (P50750 whole entry): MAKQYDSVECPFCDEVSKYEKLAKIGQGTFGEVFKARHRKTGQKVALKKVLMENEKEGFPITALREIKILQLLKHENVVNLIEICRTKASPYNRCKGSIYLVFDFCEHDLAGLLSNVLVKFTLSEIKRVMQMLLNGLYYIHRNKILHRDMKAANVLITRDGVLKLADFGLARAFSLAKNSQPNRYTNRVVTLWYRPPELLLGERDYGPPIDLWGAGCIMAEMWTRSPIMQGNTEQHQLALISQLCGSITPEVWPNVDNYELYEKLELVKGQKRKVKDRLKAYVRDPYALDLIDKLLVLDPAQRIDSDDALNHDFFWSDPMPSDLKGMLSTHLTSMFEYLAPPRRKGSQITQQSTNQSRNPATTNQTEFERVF
T1 sequence (O60563 whole entry partner): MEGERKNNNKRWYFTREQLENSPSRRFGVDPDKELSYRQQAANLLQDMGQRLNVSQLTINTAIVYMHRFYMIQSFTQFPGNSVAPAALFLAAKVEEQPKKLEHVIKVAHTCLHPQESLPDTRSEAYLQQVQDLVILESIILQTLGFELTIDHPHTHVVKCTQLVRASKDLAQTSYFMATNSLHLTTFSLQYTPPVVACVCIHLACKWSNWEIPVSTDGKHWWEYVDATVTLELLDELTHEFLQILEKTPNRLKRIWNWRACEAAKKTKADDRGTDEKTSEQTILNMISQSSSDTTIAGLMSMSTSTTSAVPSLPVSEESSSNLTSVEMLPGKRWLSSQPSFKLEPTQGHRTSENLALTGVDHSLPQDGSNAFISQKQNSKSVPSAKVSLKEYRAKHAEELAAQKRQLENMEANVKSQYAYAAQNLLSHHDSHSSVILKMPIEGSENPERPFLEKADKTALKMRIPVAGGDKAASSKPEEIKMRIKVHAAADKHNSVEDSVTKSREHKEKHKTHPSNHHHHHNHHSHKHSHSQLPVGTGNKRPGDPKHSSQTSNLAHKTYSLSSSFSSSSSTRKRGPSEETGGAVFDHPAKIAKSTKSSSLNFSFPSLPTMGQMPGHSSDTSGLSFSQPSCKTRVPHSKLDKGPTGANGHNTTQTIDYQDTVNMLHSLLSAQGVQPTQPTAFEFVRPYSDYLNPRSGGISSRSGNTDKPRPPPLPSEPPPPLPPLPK

Consider `COc1cccc2nc(CNc3nc(N4CCN(C)CC4)nc4c(-c5nccs5)cnn34)[nH]c12` [Example 416, N-[(7-methoxy-1H-benzimidazol-2-yl)methyl]-2-(4-methylpiperazin-1-yl)-8-(1,3-thiazol-2-yl)pyrazolo[1,5-a][1,3,5]triazin-4-amine], for which the IC50 is above 20 µM.

For `CN(C)CCOc1nc(NCc2nc3ccccc3[nH]2)n2ncc(Br)c2n1` [Example 399, N-[(1H-benzimidazol-2-yl)methyl]-8-bromo-2-[2-(dimethylamino)ethoxy]pyrazolo[1,5-a][1,3,5]triazin-4-amine], the IC50 was above 20 µM.

As to `CN1CCN(c2nc(NCc3nc4c(F)c(F)ccc4[nH]3)n3ncc(-c4nccs4)c3n2)CC1` [Example 415, N-[(4,5-difluoro-1H-benzimidazol-2-yl)methyl]-2-(4-methylpiperazin-1-yl)-8-(1,3-thiazol-2-yl)pyrazolo[1,5-a][1,3,5]triazin-4-amine], the IC50 was above 20 µM.

Consider `CCc1cnn2c(NCc3nc4ccccc4[nH]3)nc(N3CCOCC3)nc12` [Example 431, N-[(1H-benzimidazol-2-yl)methyl]-8-ethyl-2-(morpholin-4-yl)pyrazolo[1,5-a][1,3,5]triazin-4-amine], for which the IC50 is above 20 µM.

Take `C[C@@H]1COCCN1c1nc(NCc2nc3ccccc3[nH]2)n2ncc(Br)c2n1` [Example 56, N-[(1H-benzimidazol-2-yl)methyl]-8-bromo-2-[(3R)-3-methylmorpholin-4-yl]pyrazolo[1,5-a][1,3,5]triazin-4-amine]: the IC50 is above 20 µM.

Regarding `Fc1ccc2[nH]c(CNc3nc(N4CCOCC4)nc4c(-c5cncs5)cnn34)nc2c1F.O=C(O)C(F)(F)F` [Example 442, trifluoroacetic acid N-[(4,5-difluoro-1H-benzimidazol-2-yl)methyl]-2-(morpholin-4-yl)-8-(1,3-thiazol-5-yl)pyrazolo[1,5-a][1,3,5]triazin-4-amine], the IC50 is above 20 µM.

Turning to `Brc1cnn2c(NCc3nc4ccccc4[nH]3)nc(OC3CCOCC3)nc12` [Example 405, N-[(1H-benzimidazol-2-yl)methyl]-8-bromo-2-[(oxan-4-yl)oxy]pyrazolo[1,5-a][1,3,5]triazin-4-amine], the IC50 was above 20 µM.

On to `CCc1cnn2c(NCc3nc4c(F)c(F)ccc4[nH]3)nc(N3CCOCC3)nc12` [Example 432, N-[(4,5-difluoro-1H-benzimidazol-2-yl)methyl]-8-ethyl-2-(morpholin-4-yl)pyrazolo[1,5-a][1,3,5]triazin-4-amine], for which the IC50 was 15.7 µM.

Consider `CN1CCN(c2nc(NCc3nc4ccccc4[nH]3)n3ncc(C4CC4(F)F)c3n2)CC1` (stereo not shown) [Example 428, N-(1H-benzimidazol-2-ylmethyl)-8-(2,2-difluorocyclopropyl)-2-(4-methylpiperazin-1-yl)pyrazolo[1,5-a][1,3,5]triazin-4-amine], for which the IC50 is above 20 µM.

For the compound `CN1CCN(c2nc(NCc3nc4ccccc4[nH]3)n3ncc(CC(F)(F)F)c3n2)CC1` [Example 436, N-[(1H-benzimidazol-2-yl)methyl]-2-(4-methylpiperazin-1-yl)-8-(2,2,2-trifluoroethyl)pyrazolo [1,5-a][1,3,5]triazin-4-amine], the IC50 is above 20 µM.

For the compound `COc1ccccc1-c1nnc(CNc2nc(N3CCN(C)CC3)nc3c(C4CC4(F)F)cnn23)[nH]1` (stereo not shown) [Example 430, 8-(2,2-difluorocyclopropyl)-N-{[5-(2-methoxyphenyl)-4H-1,2,4-triazol-3-yl]methyl}-2-(4-methylpiperazin-1-yl)pyrazolo[1,5-a][1,3,5]triazin-4-amine], the IC50 is above 20 µM.

For `Cc1cnn2c(NCc3nc4c(F)c(F)ccc4[nH]3)nc(N(C)CC(C)(C)O)nc12` [Example 395, 1-[(4-{[(4,5-difluoro-1H-benzimidazol-2-yl)methyl]amino}-8-methylpyrazolo[1,5-a][1,3,5]triazin-2-yl)(methyl)amino]-2-methylpropan-2-ol], the IC50 was above 20 µM.

With `Brc1cnn2c(NCc3nc4ccccc4[nH]3)nc(OC3CCCCC3)nc12` [Example 406, N-[(1H-benzimidazol-2-yl)methyl]-8-bromo-2-(cyclohexyloxy)pyrazolo[1,5-a][1,3,5]triazin-4-amine], the IC50 is above 20 µM.

On to `Clc1ccc(-c2nnc(CNc3nc(N4CCOCC4)nc4c(Br)cnn34)[nH]2)cc1` [Example 45, 8-bromo-N-{[5-(4-chlorophenyl)-4H-1,2,4-triazol-3-yl]methyl}-2-(morpholin-4-yl)pyrazolo[1,5-a][1,3,5]triazin-4-amine], for which the IC50 turned out to be 3.41 µM.

`Clc1cccc(-c2nnc(CNc3nc(N4CCOCC4)nc4c(Br)cnn34)[nH]2)c1` [Example 51, 8-bromo-N-{[5-(3-chlorophenyl)-4H-1,2,4-triazol-3-yl]methyl}-2-(morpholin-4-yl)pyrazolo[1,5-a][1,3,5]triazin-4-amine]: the IC50 was found to be 1.29 µM.

For `CN1CCN(c2nc(NCc3nc4c(F)c(F)ccc4[nH]3)n3ncc(C4CC4(F)F)c3n2)CC1` (stereo not shown) [Example 429, N-[(4,5-difluoro-1H-benzimidazol-2-yl)methyl]-8-(2,2-difluorocyclopropyl)-2-(4-methylpiperazin-1-yl)pyrazolo[1,5-a][1,3,5]triazin-4-amine], the IC50 was above 20 µM.

As to `COc1ccccc1-c1nnc(CNc2nc(N3CCOCC3)nc3c(Br)cnn23)[nH]1` [Example 61, 8-bromo-N-{[5-(2-methoxyphenyl)-4H-1,2,4-triazol-3-yl]methyl}-2-(morpholin-4-yl)pyrazolo[1,5-a][1,3,5]triazin-4-amine], the IC50 was above 20 µM.

For the compound `CC(C)c1cnn2c(NCc3ncc(-c4ccccc4)[nH]3)nc(N3CCCCC3)nc12` [Example 36, N-[(5-phenyl-1H-imidazol-2-yl)methyl]-2-(piperidin-1-yl)-8-(propan-2-yl)pyrazolo[1,5-a][1,3,5]triazin-4-amine], the IC50 is above 20 µM.

Take `Fc1ccc(-c2nnc(CNc3nc(N4CCOCC4)nc4c(Br)cnn34)[nH]2)c(F)c1` [Example 41, 8-bromo-N-{[5-(2,4-difluorophenyl)-4H-1,2,4-triazol-3-yl]methyl}-2-(morpholin-4-yl)pyrazolo[1,5-a][1,3,5]triazin-4-amine]: the IC50 was above 20 µM.

For the compound `OC[C@H]1CCCCN1c1nc(NCc2nc3ccccc3[nH]2)n2ncc(Br)c2n1` [Example 60, [(2R)-1-(4-{[(1H-benzimidazol-2-yl)methyl]amino}-8-bromopyrazolo[1,5-a][1,3,5]triazin-2-yl)piperidin-2-yl]methanol], the IC50 came out at 7.34 µM.

For the compound `FC(F)(F)c1cccc(-c2nnc(CNc3nc(N4CCOCC4)nc4c(Br)cnn34)[nH]2)c1` [Example 52, 8-bromo-2-(morpholin-4-yl)-N-({5-[3-(trifluoromethyl)phenyl]-4H-1,2,4-triazol-3-yl}methyl)pyrazolo[1,5-a][1,3,5]triazin-4-amine], the IC50 worked out at 1.84 µM.

Take `CC(C)(O)COc1nc(NCc2nc3ccccc3[nH]2)n2ncc(Br)c2n1` [Example 398, 1-[(4-{[(1H-benzimidazol-2-yl)methyl]amino}-8-bromopyrazolo[1,5-a][1,3,5]triazin-2-yl)oxy]-2-methylpropan-2-ol]: the IC50 was above 20 µM.

Regarding `Cc1cnn2c(NCc3nc4c(F)c(F)ccc4[nH]3)nc(N3CCOCC3)nc12` [Example 392, N-[(4,5-difluoro-1H-benzimidazol-2-yl)methyl]-8-methyl-2-(morpholin-4-yl)pyrazolo[1,5-a][1,3,5]triazin-4-amine], the IC50 was above 20 µM.

Take `FC(F)(F)c1cnn2c(NCc3nnc(-c4ccccc4)[nH]3)nc(N3CCOCC3)nc12` [Example 427, 2-(morpholin-4-yl)-N-[(5-phenyl-4H-1,2,4-triazol-3-yl)methyl]-8-(trifluoromethyl)pyrazolo[1,5-a][1,3,5]triazin-4-amine]: the IC50 stood at 4.23 µM.

Consider `NCCOCCOCCNc1nc(NCc2nc3ccccc3[nH]2)n2ncc(Br)c2n1` [Example 412, N2-{2-[2-(2-aminoethoxy)ethoxy]ethyl}-N4-[(1H-benzimidazol-2-yl)methyl]-8-bromopyrazolo[1,5-a][1,3,5]triazine-2,4-diamine], for which the IC50 is above 20 µM.

Take `Cc1cnn2c(NCc3nc4c(F)c(F)ccc4[nH]3)nc(N3CC4CCC(C3)N4)nc12` [Example 400, 2-(3,8-diazabicyclo[3.2.1]octan-3-yl)-N-[(4,5-difluoro-1H-benzimidazol-2-yl)methyl]-8-methylpyrazolo[1,5-a][1,3,5]triazin-4-amine]: the IC50 was above 20 µM.

As for `Cc1cnn2c(NCc3nc4ccccc4[nH]3)nc(N3CC4CCC(C3)N4)nc12` [Example 401, N-[(1H-benzimidazol-2-yl)methyl]-2-(3,8-diazabicyclo[3.2.1]octan-3-yl)-8-methylpyrazolo[1,5-a][1,3,5]triazin-4-amine], the IC50 was above 20 µM.

Turning to `Fc1ccc2[nH]c(CNc3nc(N4CCN5CCC4CC5)nc4c(C(F)(F)F)cnn34)nc2c1F` [Example 407, 2-(1,4-diazabicyclo[3.2.2]nonan-4-yl)-N-[(4,5-difluoro-1H-benzimidazol-2-yl)methyl]-8-(trifluoromethyl)pyrazolo[1,5-a][1,3,5]triazin-4-amine], the IC50 was above 20 µM.

Consider `N#Cc1cccc(-c2c[nH]c(CNc3nc(N4CCOCC4)nc4c(Br)cnn34)n2)c1` [Example 42, 3-[2-({[8-bromo-2-(morpholin-4-yl)pyrazolo[1,5-a][1,3,5]triazin-4-yl]amino}methyl)-1H-imidazol-4-yl]benzonitrile], for which the IC50 amounted to 0.937 µM.

On to `Brc1cnn2c(NCc3nc4ccccc4[nH]3)nc(OC3CCNCC3)nc12` [Example 411, N-[(1H-benzimidazol-2-yl)methyl]-8-bromo-2-[(piperidin-4-yl)oxy]pyrazolo[1,5-a][1,3,5]triazin-4-amine], for which the IC50 is above 20 µM.

As to `Clc1cc2nc(CNc3nc(N4CCOCC4)nc4c(-c5cscn5)cnn34)[nH]c2cc1Cl` [Example 424, N-[(5,6-dichloro-1H-benzimidazol-2-yl)methyl]-2-(morpholin-4-yl)-8-(1,3-thiazol-4-yl)pyrazolo [1,5-a][1,3,5]triazin-4-amine], the IC50 was above 20 µM.
